As a reminder, the logP is a log measure of how a compound divides between an organic and an aqueous phase. The low end stands for lower lipophilicity, the high end for higher lipophilicity.

Molecules are shown by their SMILES.

`CNC12CCCCCC1Cc1ccccc12` (stereo unspecified) displayed a logP of 3.77.

On to `NC12CCCC1Cc1ccccc12` (stereo unspecified), for which the logP came to 2.58.

Consider `CNCC1CCC2(NC)c3ccccc3CC2C1` (stereo unspecified), for which the logP stood at 2.48.

Take `CNC12CCCCC1c1ccccc1C2` (stereo unspecified): the logP was determined as 3.43.

`CNC12CCCCC1Cc1ccccc12` (stereo unspecified) yielded a logP of 3.38.

In turn, `CNC12c3ccccc3CC1CCCC2C` (stereo unspecified) displayed a logP of 3.44.

Take `CCNC12c3ccccc3CC1CCCC2C` (stereo unspecified): the logP turned out to be 3.8.

`CNC12CCCCC1Cc1ccc(OC)cc12` (stereo unspecified) gave a log partition coefficient (logP) of 3.54.

Molecule `C=C1c2ccccc2C2(NC)CCCCC12` (stereo unspecified) had a logP of 3.79.

For the molecule `CNC12CCCCC1Cc1cc(OC)ccc12` (stereo unspecified), the logP is 3.51.

`CNC12CCC(CN)CC1Cc1ccccc12` (stereo unspecified) had a logP of 1.84.
